Consider one substance from PMC7038139, “Novel Peptide CM 7 Targeted c-Met with Antitumor Activity” (Molecules, 2020).

The test system of assay [1] is c-Met and its downstream signaling molecules in MKN-45 xenografts. In words: Western blot of c-Met signaling in xenograft tumors. To be noted: n = 3. The format is in vivo, Human. The procedure:
(§1) Western blot analysis was performed using an extraction buffer as described. MKN-45, MKN-28 and U87 cells were cultured in serum-free medium overnight, then treated with the indicated dose of peptide CM 7 for 24 h at 37 °C after stimulated without or with HGF for 15 min. Next, total cell lysates were separated by 12% SDS-polyacrylamide gel (SDS-PAGE) and transferred to polyvinylidene difluoride (PVDF) membranes. The PVDF membranes were probed with following primary antibodies: anti-phospho-Met (Tyr1234/1235, (Cell Signaling Technology, Beverly, MA, USA), anti-Met (Affinity, USA), anti-phospho-AKT (Ser473, (Affinity, USA)), anti-AKT (Affinity, USA), anti-phospho-Erk1/2 (Thr202/Tyr204, (Affinity, USA)), anti-Erk1/2 (Affinity, USA), anti-E-cadherin (WanleiBio, Shengyang, China), and anti-GAPDH (Multi Sciences, Hangzhou, China). Then, horseradish-peroxidase-conjugated anti-rabbit IgG was used as a second antibody. The immunoreactive proteins were exposed using an enhanced chemiluminescence detection reagent (WanleiBio, Shengyang, China). After sacrificing the mice and isolating the tumor tissue, Western blot was performed as previously described.

The subject of assay [2] is c-Met and its downstream signaling molecules in U87 cells. In words: Western blot of c-Met signaling, U87 (HGF-induced). The format is cell-based, human. The settings on record: 24 h. The method, then:
as §1

Assay [3] deals with MKN-45 cells. In words: Transwell invasion assay. The format is cell-based, Human. To be noted: Matrigel-coated Transwell, 8 μm pores; 48 h; n = 3; dose-dependent. The procedure:
For the invasion assay, a chamber was placed into a 24-well culture plate with 600 μL RPMI 1640 medium containing 10% FBS. MKN-45 cells were resuspended in serum-free medium and cultured on the upper compartment of the Transwell chamber (1.0 × 10^5 cells/well; pore size, 8 μm; Merck Millipore, Germany) coated with Matrigel. CM 7 and Crizotinib were added to the top side of the membrane at the indicated concentrations. After 48 h, the noninvaded cells were removed, and the invaded cells were fixed with ethanol and stained with crystal violet solution (0.1%) for 15 min at room temperature. The experiment was performed in triplicate, and images were obtained using an Olympus IX53 microscope (Olympus, Japan).

Assay [4] concerns MKN-45 tumor xenografts. In words: MKN-45 xenograft antitumor activity in nude mice. It is filed as in vivo, Human. The procedure: Four-to-five-week-old female Balb/c nude mice, housed in specific pathogen-free conditions, were used to evaluate antitumor activity in vivo. All animal studies were performed according to the institutional ethical guidelines for animal care.
MKN-45 cells at a density of 5 × 10^6 in 200 μL were injected subcutaneously into the flank of the mice. CM 7 (5, 10, or 20 mg/kg) was injected subcutaneously for each group twice a day for four weeks. As a positive control, Crizotinib (50 mg/kg) was given to tumor-bearing mice by gavage once a day for a total of 28 days. The tumor volume was measured with calipers in two dimensions: tumor volume = 1/2 × a × b^2, where a is the length of the tumor, and b is the width of the tumor. All of the mice were sacrificed on day 42, and the tumor tissue was isolated and weighed.

For assay [5], the system named is MKN-28 cells. Put plainly: Cell proliferation assay, MKN-28. It is filed as cell-based, Human. To be noted: CM 7, various concentrations; 4 days; serum-free medium; cell count; means of six determinations. The procedure:
(§2) Human gastric cancer cell line MKN-45 cells were from the Chinese Academy of Medical Sciences, Beijing, China. Human gastric cancer cell line MKN-28 cells, the human glioma cell line U87 cells, and MDCK cells were obtained from the American Type Culture Collection (ATCC). The MKN-45 and MKN-28 cells were grown under a humidified atmosphere of 5% CO2 at 37 °C in RPMI 1640 medium (Biological Industries, Israel), supplemented with 10% fetal bovine serum (FBS, Biological Industries, Israel), 2 mmol/L L-glutamine (Gibco, Life Technologies, Grand Island, NY, USA), 100 U/mL penicillin, and 100 μg/mL streptomycin (Invitrogen, Carlsbad, CA, USA). MDCK and U87 cells were cultured under a humidified atmosphere of 5% CO2 at 37 °C in Dulbecco’s modified Eagle’s medium (DMEM) (Gibco, Life Technologies, Grand Island, NY, USA), supplemented with 10% FBS, 2 mmol/L L-glutamine (Gibco, Life Technologies, Grand Island, NY, USA), 100 U/mL penicillin, and 100 μg/mL streptomycin (Invitrogen, Carlsbad, CA, USA).
(§3) As described in the literature, MKN-45, MKN-28, and U87 cells were seeded into 48-well culture plates (6500 cells/well) and cultured overnight. […] After 4 days, the cells were trypsinized and counted by a cell counter. […]

Assay [6] relates to MKN-45 cells. Put plainly: Cell proliferation assay, MKN-45. It is filed as cell-based, Human. To be noted: CM 7, various concentrations; 4 days; serum-free medium; cell count; means of six determinations. The procedure: as §2, §3
Assay [7] has as its system MKN-45 cells. Put plainly: Wound healing (migration) assay. The format is cell-based, Human. To be noted: 1% FBS, 48 h, n = 3, dose-dependent. The method, then: For the wound healing assay, MKN-45 cells (4 × 10^4 cells/well) were seeded in a 48-well culture plate. When the cells were almost completely fused, a sterile 200 μL pipette tip was used to generate a straight wound line across the monolayer cell. Then, the cells were washed with PBS and incubated in RPMI 1640 medium containing 1% FBS with CM 7 or Crizotinib at the indicated concentration for 48 h. The experiment was performed in triplicate, and the cell migration toward the gap was captured using the microscope.

Assay [8] deals with MKN-45 cells. Put plainly: Cell cycle distribution assay. It is filed as cell-based, Human. The settings on record: 48 h; compared with the control group; n = 3. The method, then: According to the cell cycle detection kit (Keygen) instructions, MKN-45 cells were collected and seeded in a six-well culture plate at the concentration 2 × 10^6/mL overnight. Then, the cells were washed with PBS and treated with peptide CM 7 at the indicated concentration for 48 h. The experiment was performed in triplicate. A MACS Quant flow cytometer (Miltenyi Biotec GmbH, Bergisch Gladbach, Germany) was used to detect the cell cycle profile, and FlowJo software version 7.6 (FlowJo LLC, Ashland, USA) was used to analyze the data.

Entries after “also recorded” stand apart in the source; their conditions may differ.

Turning to “DQIIANN [CM 7, Novel peptide DQIIANN targeting the tyrosine kinase receptor c-Met]”, in assay [1], the “Intratumoral expression of E-cadherin” value is “significantly increased” and the “Intratumoral phosphorylation of c-Met, Akt or Erk” value is “markedly inhibited”. The “Expression of E-cadherin” value in assay [2] was “increase the expression of E-cadherin”. For the same substance, the “Phosphorylation of c-Met, Akt and Erk” value in assay [2] (HGF 15 min, dose-dependent) is listed as “effectively inhibit”. Besides, the “Inhibition of cell invasion” value in assay [3] is recorded as “moderate regulation; also recorded: significantly inhibit cell invasion”. Further, the “Inhibition of tumor growth versus vehicle (PBS)” value in assay [4] (20 mg/kg s.c. twice a day, 28 days, n = 5–6) was “significantly inhibited tumor growth”. Also, in assay [4] (CM 7 20 mg/kg s.c. twice a day vs Crizotinib 50 mg/kg by gavage daily, 28 days), the “Inhibition of tumor growth relative to Crizotinib” value is listed as “weaker than the positive control group (Crizotinib)”. Moreover, the “Growth inhibition rate of tumor masses” value in assay [4] (xenograft mouse model using MKN-45 cells, dose not printed with the value (5, 10, 20 mg/kg s.c. twice a day tested)) is 62%. For the same substance, in assay [5], the “Inhibition of cell proliferation” value is “no effect”. Besides, in assay [6], the “Inhibition of cell proliferation” value is “moderate regulation; also recorded: inhibit the proliferation of MKN-45 or U87 cells to a certain extent with considerable dose dependence”. Moreover, in assay [7], the “Inhibition of cell migration” value is “moderate regulation; also recorded: significantly inhibit cell invasion (Figure 7A,C) and cell migration”. Also, the Cell cycle arrest result in assay [8] was “significantly arrested in the S phase”.
